system: HBV; assay: Viral load production from HepAD38 cells, qPCR of the HBV core sequence in supernatant; type: cell-based; details: HepAD38 cells, 5 days, HBV DNA in supernatant by qPCR; Table 1 ranges; read-out: Activity (viral load lowering EC50)
How it was run: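 EC50 and CC50 come from four-parameter logistic fits of supernatant HBV core DNA (TaqMan qPCR, DNA standards, compared with DMSO wells) and of CellTiter-Glo luminescence.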

Row | SMILES | EC50 [nM]
1 | Cn1nc(C2CC3CC(O)(CNc4ncc(F)cn4)CC3C2)c(C(=O)Nc2ccc(F)c(Cl)c2)c1N (centres unmarked) [Example 213] | 10 to 50

same assay, conditions: Hepatitis B virus, HePAD38, 120 h, HepAD38 cells, 5 days, HBV DNA in supernatant by qPCR; Table 1 ranges; read-out: Activity (viral load lowering EC50)

Row | SMILES | EC50 [nM]
2 | Cn1nc(C2CC3CC(O)(c4sc(C(F)(F)F)nc4Br)CC3C2)c(C(=O)Nc2ccc(F)c(Cl)c2)c1N (centres unmarked) [Example 151] | 50 to 500
3 | Cn1nc(C2CC3CC(O)(c4nc5cc(F)c(F)cc5n4C)CC3C2)c(C(=O)Nc2ccc(F)c(Cl)c2)c1N (centres unmarked) [Example 152] | 10 to 50
4 | Cn1ccc(C2(O)CC3CC(c4nn(C)c(N)c4C(=O)Nc4ccc(F)c(Cl)c4)CC3C2)n1 (centres unmarked) [Example 153] | < 10
5 | Cc1cc(C2(O)CC3CC(c4nn(C)c(N)c4C(=O)Nc4ccc(F)c(Cl)c4)CC3C2)c(F)cn1 (centres unmarked) [Example 154] | < 10
6 | Cn1nc(N)cc1C1(O)CC2CC(c3nn(C)c(N)c3C(=O)Nc3ccc(F)c(Cl)c3)CC2C1 [Example 155, 5-amino-3-((2 s,3aR,5r,6aS)-5-(3-amino-1-methyl-1H-pyrazol-5-yl)-5-hydroxyoctahydropentalen-2-yl)-N-(3-chloro-4-fluorophenyl)-1-methyl-1H-pyrazole-4-carboxamide] | < 10
7 | Cn1nc(C2CC3CC(O)(c4c[nH]nc4C(F)(F)F)CC3C2)c(C(=O)Nc2ccc(F)c(Cl)c2)c1N (centres unmarked) [Example 156, 5-amino-N-(3-chloro-4-fluorophenyl)-3-(5-hydroxy-5-(3-(trifluoromethyl)-1H-pyrazol-4-yl)octahydropentalen-2-yl)-1-methyl-1H-pyrazole-4-carboxamide] | < 10
8 | Cn1nc(C2CC3CC(O)(c4cn(COP(=O)(O)O)nc4C(F)(F)F)CC3C2)c(C(=O)Nc2ccc(F)c(Cl)c2)c1N (centres unmarked) [Example 157, sodium sodium (4-(5-(5-amino-4-((3-chloro-4-fluorophenyl)carbamoyl)-1-methyl-1H-pyrazol-3-yl)-2-hydroxyoctahydropentalen-2-yl)-3-(trifluoromethyl)-1H-pyrazol-1-yl)methyl phosphate] | < 10
9 | COCCOCCOCCOCCOCCOCCOCCOCCOC(=O)OCn1cc(C2(O)CC3CC(c4nn(C)c(N)c4C(=O)Nc4ccc(F)c(Cl)c4)CC3C2)c(C(F)(F)F)n1 [Example 158, (4-((2r,3aR,5 s,6aS)-5-(5-amino-4-((3-chloro-4-fluorophenyl)carbamoyl)-1-methyl-1H-pyrazol-3-yl)-2-hydroxyoctahydropentalen-2-yl)-3-(trifluoromethyl)-1H-pyrazol-1-yl)methyl (2,5,8,11,14,17,20,23-octaoxapentacosan-25-yl) carbonate] | < 10
10 | Cn1nc(C(F)(F)F)cc1C1(O)CC2CC(c3nn(C)c(N)c3C(=O)Nc3ccc(F)c(Cl)c3)CC2C1 (centres unmarked) [Example 159] | 10 to 50
11 | Cn1nc(C2CC3CC(O)(Cc4nccs4)CC3C2)c(C(=O)Nc2ccc(F)c(Cl)c2)c1N (centres unmarked) [Example 160] | < 10
12 | Cc1ncc(C2(O)CC3CC(c4nn(C)c(N)c4C(=O)Nc4ccc(F)c(Cl)c4)CC3C2)s1 (centres unmarked) [Example 161] | < 10
13 | Cc1ccc(S(=O)(=O)CC2(O)CC3CC(c4nn(C)c(N)c4C(=O)Nc4ccc(F)c(Cl)c4)CC3C2)cn1 (centres unmarked) [Example 162] | < 10
14 | Cn1cc(C(F)(F)F)nc1C1(O)CC2CC(c3nn(C)c(N)c3C(=O)Nc3ccc(F)c(Cl)c3)CC2C1 (centres unmarked) [Example 163] | 10 to 50
15 | Cn1nc(C2CC3CC(O)(Cc4ccccn4)CC3C2)c(C(=O)Nc2ccc(F)c(Cl)c2)c1N (centres unmarked) [Example 164] | 10 to 50
16 | Cn1nc(C2CC3CC(O)(c4cc(Br)ncc4F)CC3C2)c(C(=O)Nc2ccc(F)c(Cl)c2)c1N (centres unmarked) [Example 166] | 10 to 50
17 | Cn1nc(C2CC3CC(O)(c4ncc(C(F)(F)F)n4C)CC3C2)c(C(=O)Nc2ccc(F)c(Cl)c2)c1N (centres unmarked) [Example 167] | 10 to 50
18 | Cn1nc(C2CC3CC(O)(c4ccc(F)cn4)CC3C2)c(C(=O)Nc2ccc(F)c(Cl)c2)c1N (centres unmarked) [Example 168] | < 10
19 | Cn1nc(C2CC3CC(O)(c4ccncc4F)CC3C2)c(C(=O)Nc2ccc(F)c(Cl)c2)c1N (centres unmarked) [Example 169] | < 10
20 | Cn1nc(C2CC3CC(O)(c4c[nH]nn4)CC3C2)c(C(=O)Nc2ccc(F)c(Cl)c2)c1N (centres unmarked) [Example 170] | < 10
21 | Cn1nc(C2CC3CC(O)(c4nn[nH]n4)CC3C2)c(C(=O)Nc2ccc(F)c(Cl)c2)c1N (centres unmarked) [Example 171] | > 500
22 | Cn1nnnc1C1(O)CC2CC(c3nn(C)c(N)c3C(=O)Nc3ccc(F)c(Cl)c3)CC2C1 (centres unmarked) [Example 172] | 10 to 50

Row | SMILES | EC50 [nM]
23 | Cn1nc(C2CC3CC(O)(c4cn[nH]n4)CC3C2)c(C(=O)Nc2ccc(F)c(Cl)c2)c1N (centres unmarked) [Example 173] | 10 to 50
24 | Cn1nc(C2CC3CC(O)(c4c(F)cncc4F)CC3C2)c(C(=O)Nc2ccc(F)c(Cl)c2)c1N (centres unmarked) [Example 174] | < 10
25 | Cn1nc(C2CC3CC(O)(c4ncccn4)CC3C2)c(C(=O)Nc2ccc(F)c(Cl)c2)c1N (centres unmarked) [Example 175] | < 10
26 | Cc1nnc(C2(O)CC3CC(c4nn(C)c(N)c4C(=O)Nc4ccc(F)c(Cl)c4)CC3C2)o1 (centres unmarked) [Example 176] | 10 to 50
27 | Cc1nc(C2(O)CC3CC(c4nn(C)c(N)c4C(=O)Nc4ccc(F)c(Cl)c4)CC3C2)no1 (centres unmarked) [Example 177] | < 10
28 | Cn1nc(C2CC3CC(O)(c4cc[nH]n4)CC3C2)c(C(=O)Nc2ccc(F)c(Cl)c2)c1N (centres unmarked) [Example 178] | < 10
29 | Cc1noc(C2(O)CC3CC(c4nn(C)c(N)c4C(=O)Nc4ccc(F)c(Cl)c4)CC3C2)n1 (centres unmarked) [Example 179] | < 10
30 | Cc1cc(C2(O)CC3CC(c4nn(C)c(N)c4C(=O)Nc4ccc(F)c(Cl)c4)CC3C2)on1 (centres unmarked) [Example 180] | < 10
31 | Cn1nc(C2CC3CC(O)(Cc4ncco4)CC3C2)c(C(=O)Nc2ccc(F)c(Cl)c2)c1N (centres unmarked) [Example 181] | < 10
32 | Cn1nc(C2CC3CC(N)(CS(C)(=O)=O)CC3C2)c(C(=O)Nc2ccc(F)c(Cl)c2)c1N (centres unmarked) [Example 182] | > 500
33 | Cc1coc(C2(O)CC3CC(c4nn(C)c(N)c4C(=O)Nc4ccc(F)c(Cl)c4)CC3C2)n1 (centres unmarked) [Example 183] | < 10
34 | Cc1cnc(C2(O)CC3CC(c4nn(C)c(N)c4C(=O)Nc4ccc(F)c(Cl)c4)CC3C2)o1 (centres unmarked) [Example 184] | < 10
35 | Cn1nc(C2CC3CC(N4CCC(F)(C(N)=O)CC4)CC3C2)c(C(=O)Nc2ccc(F)c(Cl)c2)c1N (centres unmarked) [Example 185] | 10 to 50
36 | COC(=O)C1=CCN(C2CC3CC(c4nn(C)c(N)c4C(=O)Nc4ccc(F)c(Cl)c4)CC3C2)CC1 (centres unmarked) [Example 186] | 50 to 500
37 | Cn1nc(C2CC3CC(N4CCC(C(N)=O)CC4)CC3C2)c(C(=O)Nc2ccc(F)c(Cl)c2)c1N (centres unmarked) [Example 187] | 50 to 500
38 | Cn1nc(C2CC3CC(N4CC=C(C(=O)O)CC4)CC3C2)c(C(=O)Nc2ccc(F)c(Cl)c2)c1N (centres unmarked) [Example 188] | > 500
39 | Cn1nc(C2CC3CC(N4CC=C(C(N)=O)CC4)CC3C2)c(C(=O)Nc2ccc(F)c(Cl)c2)c1N (centres unmarked) [Example 189] | 10 to 50
40 | Cn1nc(C2CC3CC(O)(c4cccnn4)CC3C2)c(C(=O)Nc2ccc(F)c(Cl)c2)c1N (centres unmarked) [Example 190] | < 10
41 | Cn1nc(C2CC3CC(O)(c4cnccn4)CC3C2)c(C(=O)Nc2ccc(F)c(Cl)c2)c1N (centres unmarked) [Example 191] | < 10
42 | CSc1nccc(C2(O)CC3CC(c4nn(C)c(N)c4C(=O)Nc4ccc(F)c(Cl)c4)CC3C2)n1 (centres unmarked) [Example 192] | 10 to 50
43 | Cn1ncnc1C1(O)CC2CC(c3nn(C)c(N)c3C(=O)Nc3ccc(F)c(Cl)c3)CC2C1 (centres unmarked) [Example 193] | < 10

Row | SMILES | EC50 [nM]
44 | Cn1nc(Br)c(C2(O)CC3CC(c4nn(C)c(N)c4C(=O)Nc4ccc(F)c(Cl)c4)CC3C2)n1 (centres unmarked) [Example 194] | < 10
45 | Cn1ncc(C2(O)CC3CC(c4nn(C)c(N)c4C(=O)Nc4ccc(F)c(Cl)c4)CC3C2)n1 (centres unmarked) [Example 195] | < 10
46 | CCn1nccc1C1(O)CC2CC(c3nn(C)c(N)c3C(=O)Nc3ccc(F)c(Cl)c3)CC2C1 (centres unmarked) [Example 196] | < 10
47 | Cn1nc(C2CC3C=C(c4ccn[nH]4)CC3C2)c(C(=O)Nc2ccc(F)c(Cl)c2)c1N (centres unmarked) [Example 197] | < 10
48 | C=C(n1cccn1)C1(O)CC2CC(c3nn(C)c(N)c3C(=O)Nc3ccc(F)c(Cl)c3)CC2C1 (centres unmarked) [Example 198] | < 10
49 | CC(n1cccn1)C1(O)CC2CC(c3nn(C)c(N)c3C(=O)Nc3ccc(F)c(Cl)c3)CC2C1 (centres unmarked) [Example 199] | < 10
50 | CC(C)n1nccc1C1(O)CC2CC(c3nn(C)c(N)c3C(=O)Nc3ccc(F)c(Cl)c3)CC2C1 (centres unmarked) [Example 200] | < 10
51 | Cn1nc(C2CC3CC(O)(CNc4ncc(F)cn4)CC3C2)c(C(=O)Nc2ccc(F)c(Cl)c2)c1N (centres unmarked) [Example 201] | < 10
52 | CC(C)n1nc([N+](=O)[O-])cc1C1(O)CC2CC(c3nn(C)c(N)c3C(=O)Nc3ccc(F)c(Cl)c3)CC2C1 (centres unmarked) [Example 206] | < 10
53 | Cn1nc(C(F)(F)F)c(C2(O)CC3CC(c4nn(C)c(N)c4C(=O)Nc4ccc(F)c(Cl)c4)CC3C2)n1 (centres unmarked) [Example 207] | < 10
54 | Cn1nc(C2CC3CC(O)(c4c(Cl)cnn4C)CC3C2)c(C(=O)Nc2ccc(F)c(Cl)c2)c1N (centres unmarked) [Example 208] | < 10
55 | Cn1nc(C2CC3CC(O)(c4c(F)cnn4C)CC3C2)c(C(=O)Nc2ccc(F)c(Cl)c2)c1N (centres unmarked) [Example 209] | < 10
56 | CCn1nc(N)cc1C1(O)CC2CC(c3nn(C)c(N)c3C(=O)Nc3ccc(F)c(Cl)c3)CC2C1 (centres unmarked) [Example 210] | < 10
57 | CC(C)n1nc(N)cc1C1(O)CC2CC(c3nn(C)c(N)c3C(=O)Nc3ccc(F)c(Cl)c3)CC2C1 (centres unmarked) [Example 211] | < 10
58 | Cn1nc(C2CC3CC(O)(c4n[nH]cc4C(F)(F)F)CC3C2)c(C(=O)Nc2ccc(F)c(Cl)c2)c1N (centres unmarked) [Example 212] | < 10
59 | CCn1nc(N)cc1C1=CC2CC(c3nn(C)c(N)c3C(=O)Nc3ccc(F)c(Cl)c3)CC2C1 (centres unmarked) [Example 214] | < 10
60 | Cn1nc(C2CC3CC(O)(c4cc(N)nn4C4CC4)CC3C2)c(C(=O)Nc2ccc(F)c(Cl)c2)c1N (centres unmarked) [Example 215] | < 10
61 | Cn1nc(C2CC3C=C(c4cc(N)nn4C4CC4)CC3C2)c(C(=O)Nc2ccc(F)c(Cl)c2)c1N (centres unmarked) [Example 216] | 10 to 50
62 | Cc1cc(C2(O)CC3CC(c4nn(C)c(N)c4C(=O)Nc4ccc(F)c(Cl)c4)CC3C2)n(C)n1 (centres unmarked) [Example 217] | < 10

Source: patent US20230295096A1, “PYRAZOLE CARBOXAMIDE COMPOUNDS FOR TREATMENT OF HBV” (ASSEMBLY BIOSCIENCES, INC., priority 2020, published 2023)
